# Source: PubChem BioAssay AID2765 (Broad Institute, 2010)
# pEC50: −log10 of the molar value. Calls of active or inactive are those of the source.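 How the source made its calls: active means half-maximal concentration for the rise in caspase light signal at or below ten times the top tested dose; inconclusive means flat fit between 30% and 70% activity, or unreliable curve fit; inactive means the rest.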
# System: MEF A1-2A-BIM cells, caspase 3/7 luminescence, 3 h
# Experiment: inducers of caspase signal in A1-dependent MEFs – cell-based, luminescence, retest, A1 inhibitor project, dose response (AID 2765)
SMILES,EC50,pEC50
N[C@@]1(C(=O)O)CC[C@@H](C(=O)O)C1,> 35 µM (inactive),
COc1cc(SC#N)ccc1N=Cc1c(C)[nH]n(-c2ccc(C)cc2)c1=O,> 35 µM (inactive),
CCOC(=O)c1cc(CC)sc1NC(=O)C1CC(=O)NN1Cc1ccccc1 (configuration not stated),> 35 µM (inactive),
CC(=O)Nc1ccc(NC(=O)C(=O)NCC(c2ccco2)N2CCc3ccccc32)cc1 (configuration not stated),,4.49
CCOC(=O)c1c(C)[nH]c(C)c1C(=O)CSc1nc2ccccc2n1CCOC,> 35 µM (inactive),
Cc1cc(NC(=O)COC(=O)C(Cc2ccccc2)NC(=O)c2ccco2)no1 (configuration not stated),> 35 µM (inactive),
CC(CC(=O)N1CCN(c2cccc(Cl)c2)CC1)S(=O)(=O)c1ccc2c(c1)NC(=O)CO2 (configuration not stated),> 35 µM (inactive),
Cc1cc(C)n2nc(SCC(=O)NC(=O)c3ccccc3)nc2n1,> 35 µM (inactive),
CCCCNC(=O)c1ccc2nc(-c3ccco3)c(-c3ccco3)nc2c1,> 35 µM (inactive),
COc1ccc(NC(=O)C(=O)N/N=C\c2ccc(CNC(=O)C(=O)Nc3ccc(C)c(C)c3)o2)c(OC)c1,,4.84
COc1ccc2nc(SCC(=O)N3CCN(c4ccc(F)cc4)CC3)c(C#N)cc2c1,> 35 µM (inactive),
COc1ccc(CCNC(=O)C2CCCN2C(=O)Nc2ccc(Cl)cc2)cc1OC (configuration not stated),> 35 µM (inactive),
CCCC(=O)Nc1ncnc2c1ncn2[C@@H]1O[C@@H]2OP(=O)(O)OC[C@H]2[C@H]1OC(=O)CCC,> 35 µM (inactive),
CN1CCc2cccc(Cl)c2CC1,> 35 µM (inactive),
CCN(CC(=O)NCc1ccc(Cl)cc1)S(=O)(=O)c1ccc(F)cc1,> 35 µM (inactive),
O=C(NCc1ccccc1)c1cncc(Br)c1,> 35 µM (inactive),
CC1=C/C(=N\OS(=O)(=O)c2ccccc2)C(C)=CC1=O,> 35 µM (inactive),
CC(C)C(=O)n1nc(-c2cccnc2)nc1NCc1ccc(F)cc1,> 35 µM (inactive),
CC1Cc2cc(/C(O)=C3/C(=O)C(=O)N(Cc4cccnc4)C3c3cccc(O)c3)ccc2O1 (configuration not stated),> 35 µM (inactive),
COC(=O)CCC(=O)c1ccc(OC)c(Cl)c1,> 35 µM (inactive),
COc1ccc(NC(=O)CN2CCN(CC(=O)Nc3ccccc3Cl)CC2)cc1Cl,> 35 µM (inactive),
Cc1cc(C)cc(Cn2ncc(Cl)c(Cl)c2=O)c1,> 35 µM (inactive),
CCCOc1ccc(N2C(=O)C3ON(c4ccccc4)C(CCC)C3C2=O)cc1 (configuration not stated),> 35 µM (inactive),
COc1ccc(-c2nc(CN3CCN(C(=O)c4ccco4)CC3)c(C)o2)cc1OC,> 35 µM (inactive),
CC1CCCN(C(=O)CN2C(=O)C(C)Oc3ccccc32)C1 (configuration not stated),> 35 µM (inactive),

SMILES,EC50,pEC50
COc1cc(CN2CCc3ccccc3C2)ccc1O,> 35 µM (inactive),
CSCCC(NS(=O)(=O)c1ccc(C)cc1)C(=O)NCCc1c[nH]c2ccccc12 (configuration not stated),> 35 µM (inactive),
O=C(CNC(=O)c1ccc(Br)cc1)NC1CC1,> 35 µM (inactive),
COc1ccc(CCNC(=O)CSc2nc(-c3ccc(OC)c(OC)c3)ccc2C#N)cc1,> 35 µM (inactive),
COc1ccc(CCNC(=O)CCOc2ccc(C)cc2)cc1OC,> 35 µM (inactive),
CCCNC(=O)N1[C@H]2CC[C@@H]1C(C(=O)OC)=C(c1c(C)noc1C)C2,> 35 µM (inactive),
CCS(=O)(=O)c1ncc(Cl)c(C(=O)Nc2ccccc2OC)n1,> 35 µM (inactive),
C=CCNC(=O)CSc1nc2sc3c(c2c(=O)n1CCC)CCC3,> 35 µM (inactive),
CCCCn1nc(C)c(C(=O)O)c1Cl,> 35 µM (inactive),
Cc1ccc(C(O)(CCN2CCCCC2)c2ccccc2)cc1 (configuration not stated),> 35 µM (inactive),
CC(C)CCNC(=O)c1cc(-c2ccncc2)nc2ccc(S(=O)(=O)N3CCOCC3)cc12,> 35 µM (inactive),
Cc1coc(NC(=O)CSc2nc(-c3ccc(Cl)cc3)cc(C(F)(F)F)c2C#N)n1,> 35 µM (inactive),
O=C(NCCOC(=O)c1ccc(Cl)c(S(=O)(=O)N2CCCCC2)c1)c1ccncc1,> 35 µM (inactive),
Cc1cccc(/C=C/C(=O)c2ccc([N+](=O)[O-])o2)c1,> 35 µM (inactive),
COc1cc(NC(=O)c2ccccc2)c(OC)cc1NC(=O)Cc1ccc(Br)cc1,> 35 µM (inactive),
Cc1ccc(N=C2C(=O)Nc3ccccc32)cc1,> 35 µM (inactive),
O=C(Cn1[nH]c(=O)c2ccccc2c1=O)OCC(=O)N1CCc2ccccc2C1,> 35 µM (inactive),
Fc1ccc(NC(=S)NCc2ccccc2Cl)cc1,> 35 µM (inactive),
COc1ccc(C(=O)NCc2cccnc2)cc1Br,> 35 µM (inactive),
CCc1nnc(NC(=O)c2ccc(NC(=O)C(C)C)cc2)s1,> 35 µM (inactive),
COc1ccccc1CN1CC(C(=O)NCCN2CCNC2=O)CCC1=O (configuration not stated),> 35 µM (inactive),
CC(C)(C)C1=CC=C(C(C)(C)C)C(=O)C1=O,> 35 µM (inactive),
O=C(Nc1ccccc1)N(Cc1ccc(Cl)cc1)CC(O)C(F)(F)F (configuration not stated),> 35 µM (inactive),
Cc1cccc(C)c1NC(=O)C(Cl)C(=O)c1ccccc1 (configuration not stated),> 35 µM (inactive),
C[C@@H]1CN([C@@H](C)CO)C(=O)c2cc(NS(=O)(=O)c3ccc(Cl)cc3)ccc2O[C@H]1CN(C)Cc1ccncc1,> 35 µM (inactive),

SMILES,EC50,pEC50
CN(C(=O)c1ccc(NC(=O)C2CCCN(C(=O)OC(C)(C)C)C2)cc1)C1CC1 (configuration not stated),> 35 µM (inactive),
CC1=NNC(=O)/C1=C\c1cn(-c2ccccc2)nc1-c1ccccc1,,4.93
NC(N)=N/N=C/c1cccc([N+](=O)[O-])c1O,> 35 µM (inactive),
CN(CC(O)COC(c1ccccc1)c1ccccc1)C1CCCCC1 (configuration not stated),> 35 µM (inactive),
O=C(COc1ccc(/C=N/NC(=O)c2cc3ccccc3o2)cc1Br)Nc1ccccc1,,4.51
Cc1ccc(NC(=O)CSc2nc3nc(C)c(Br)cc3[nH]2)cc1F,> 35 µM (inactive),
COc1ccc2sc(N(CCCN(C)C)C(=O)c3ccc(S(=O)(=O)N4CCc5ccccc5C4)cc3)nc2c1,,4.53
Cc1ccc(C(=O)N/C(=C\c2sccc2C)C(=O)NCCCN2CCOCC2)cc1,> 35 µM (inactive),
CCOC(=O)C(Cc1ccc(N)cc1)N1C(=O)c2ccccc2C1=O (configuration not stated),> 35 µM (inactive),
CCS(=O)(=O)c1ncc(Cl)c(C(=O)Nc2ccc(S(=O)(=O)N3CCC(C)CC3)cc2)n1,> 35 µM (inactive),
CC(=O)c1cccc(CN2CCN(CCc3ccccc3)C(CCO)C2)c1 (configuration not stated),> 35 µM (inactive),
O=C(NCCN1CCN(c2ccccc2)CC1)c1ccc2c(c1)[nH]c(=S)n1c3ccccc3nc21,> 35 µM (inactive),
c1ccc(-c2sc3ccccc3c2-c2ccc(OCCN3CCOCC3)cc2)cc1,> 35 µM (inactive),
O=C1Nc2ncccc2OC1CCO (configuration not stated),> 35 µM (inactive),
Cc1ccc(C)c(N(C(=O)CCC(=O)Nc2cc(C)on2)C(C(=O)NC2CCCC2)c2ccco2)c1 (configuration not stated),> 35 µM (inactive),
Oc1ccc(C[C@H]2CNCCN2CCCCC2CCCCC2)cc1,> 35 µM (inactive),
O=S(=O)(Nc1nc2ccccc2nc1Cl)c1ccc(Br)cc1,> 35 µM (inactive),
Cc1ccc(NC(=O)CCN2CCOCC2)cc1C,> 35 µM (inactive),
O=C(NNC(=O)c1cc(C(F)(F)F)cc(C(F)(F)F)c1)c1ccc(Cl)cc1,> 35 µM (inactive),
Cc1ccc(-c2nc(NC(=O)c3nn(C)cc3[N+](=O)[O-])sc2C)cc1,,5.01
CCCCCCCC/C=C\CCCCCCCC(=O)NCCc1ccc(O)c(O)c1,,5.09
Cc1cccc(Nc2nc(N)c([N+](=O)[O-])c(N3CCCC(C)C3)n2)c1 (configuration not stated),> 35 µM (inactive),
CCn1c(SCC(=O)Nc2ccc(C(C)=O)cc2)nc2c([nH]c3ccccc32)c1=O,,4.89
Cc1ccc(-c2nc(NC(=O)c3nn(C)cc3[N+](=O)[O-])sc2C)cc1C,,5.20
COc1ccc2cc(C)c3nnc(SCC(=O)Nc4nc(-c5ccc(F)cc5)cs4)n3c2c1,,5.02

SMILES,EC50,pEC50
Cc1cc(C)cc(N(CC(=O)Nc2cccc(C)c2C)S(=O)(=O)c2c(C)[nH]c(=O)[nH]c2=O)c1,> 35 µM (inactive),
CN1C(C(=O)Nc2cccc(O)c2)=CC(c2ccco2)=NS1(=O)=O,> 35 µM (inactive),
O=S1(=O)C=C(Sc2nc3cc(Cl)ccc3o2)c2ccccc21,> 35 µM (inactive),
COc1ccc(S(=O)(=O)Nc2ccccc2C(=O)NC2CC2)cc1NC(C)=O,> 35 µM (inactive),
O=C1N/C(=C/c2ccc(N3CCOCC3)o2)C(=O)N1c1cccc(Cl)c1,> 35 µM (inactive),
O=C(c1cc(-c2ccccn2)nc2ccc(Cl)cc12)N1CCN(CCc2ccccc2)CC1,> 35 µM (inactive),
CS(=O)(=O)c1nc(-c2ccco2)cc(C(F)(F)F)n1,> 35 µM (inactive),
CC(=O)OC(C)(C)/C=C/C(=O)C(C)(O)C1[C@H](O)C[C@@]2(C)C3CC=C4C(CC[C@@H](O)C4(C)C)[C@]3(CO)C(=O)C[C@]12C (some centres not stated),> 35 µM (inactive),
O=C(CN1C(=O)NC2(CCCCCC2)C1=O)Nc1cccc(F)c1,> 35 µM (inactive),
COc1ccc(CNS(=O)(=O)c2ccccc2Br)cc1,> 35 µM (inactive),
CC(C)(C)C#CC(CCc1ccccc1)OS(N)(=O)=O (configuration not stated),> 35 µM (inactive),
Cc1cccc(C)c1NC(=S)Nc1ccccc1C(=O)NCc1ccco1,> 35 µM (inactive),
COc1ccc(OC)c2[nH]c(C(=O)N3CCC(C(=O)O)CC3)cc12,> 35 µM (inactive),
C#CCn1ccc(O)c(Cc2ccccc2)c1=O,> 35 µM (inactive),
CC(C)CNC(=S)N(Cc1ccco1)Cc1cc2cc3c(cc2[nH]c1=O)OCCO3,> 35 µM (inactive),
CCCOC(=O)c1[nH]c2c(c1C)C(=O)CC(c1cccs1)C2 (configuration not stated),> 35 µM (inactive),
CCCN1CCN(CCCNC(=O)CCCn2nc(C)c3sc4ccccc4c3c2=O)CC1,> 35 µM (inactive),
O=C(Nc1ccccc1N1CCCCC1)c1ccc(Cl)cc1,> 35 µM (inactive),
CCS(=O)(=O)c1ncc(Cl)c(C(=O)Nc2ccc(S(=O)(=O)N3CCCC(C)C3)cc2)n1 (configuration not stated),> 35 µM (inactive),
CCC(=O)c1ccc(N2CCN(C(=O)Cc3ccccc3)CC2)c(F)c1,> 35 µM (inactive),
COc1ccc(C(=O)NNC(=O)CSc2nc3c(c(=O)n(C)c(=O)n3C)n2C)cc1,> 35 µM (inactive),
COc1ccc(CCNC(=O)COC(=O)c2cnc(Cl)c(Cl)c2)cc1,> 35 µM (inactive),
